According to patent US7947692B2, “Substituted thiazolo[5,4-d]pyrimidine urea derivatives” (Hoffmann-La Roche Inc., priority 2006, dated 2011):

What follows are molecules tested against T1, human adenosine A2B receptor (Homo sapiens, UniProt P29275) (assay: Inhibitory activity on NECA-induced cyclic AMP production in CHO.K1 cells expressing human adenosine A2B receptor). Details: 100 nM NECA, cAMP (HitHunter kit), 30-45 min incubation.
T1 construct: expressed in transfected cells; host or cells: CHO.K1
T1 sequence (P29275 1-332): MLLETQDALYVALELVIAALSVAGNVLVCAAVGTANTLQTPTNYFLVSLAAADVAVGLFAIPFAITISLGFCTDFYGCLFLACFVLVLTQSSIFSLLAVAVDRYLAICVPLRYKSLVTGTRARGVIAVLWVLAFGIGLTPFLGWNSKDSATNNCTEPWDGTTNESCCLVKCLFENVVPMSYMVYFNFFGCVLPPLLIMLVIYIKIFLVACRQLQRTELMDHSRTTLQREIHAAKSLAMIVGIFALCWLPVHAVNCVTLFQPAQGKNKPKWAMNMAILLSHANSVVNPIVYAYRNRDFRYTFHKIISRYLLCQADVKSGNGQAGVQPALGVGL
Assay type: cell-based
Procedure: Cells were cultured under 5%CO2/95% […] atmosphere at 37° C. in DMEM and D-MEM/F-12 (1:1 mixture) medium (Invitrogen, Grand Island, N.Y.) with 10% fetal calf serum (Invitrogen, Grand Island, N.Y.), 100 U/mL penicillin (Invitrogen, Grand Island, N.Y.), 100 U/mL streptomycin (Invitrogen, Grand Island, N.Y.), 1 mg/mL G418 (Invitrogen, Grand Island N.Y.) and 0.2 mg/mL Hygromycin B (Invitrogen, Carlsbad, Calif.). Experimental cultures were grown overnight as a monolayer in 384-well tissue culture plates (0.06 ml/well-7500 cells/well). Each well was washed once with 0.1 mL of Krebs buffer. To each well was added 50 uL of Krebs buffer containing 100 uM of the phosphodiesterase inhibitor 4-(3-butoxy-4-methoxybenzyl)-2-imidazolidinone, 100 nM NECA (Sigma-Aldrich, St. Louis, Mo.), 0.02% BSA Fraction V (Roche Biochemicals), the test compound (appropriate concentration). The final concentration of DMSO was 1.1%. After incubation for 30-45 min, the wells were emptied and blotted on paper towel to remove residual solution. The HitHunter™ cAMP Assay Kit from DiscoverX for adherent cells (Fremont, Calif.) was used for lysing the cells and measuring cAMP concentrations.

SMILES	IC50 [nM]
COc1ncnc2sc(NC(=O)N3CC[C@H](NC(=O)c4ccc(F)c(C(F)(F)F)c4)C3)nc12 [Example 89, (S)-3-(4-fluoro-3-trifluoromethyl-benzoylamino)-pyrrolidine-1-carboxylic acid (7-methoxy-thiazolo[5,4-d]pyrimidin-2-yl)-amide]	4
COc1ncnc2sc(NC(=O)N3CCC4(CC3)C(=O)NC[C@H]4c3ccc(F)cc3)nc12 [Example 31, 4-(4-Fluoro-phenyl)-1-oxo-2,8-diazaspiro[4,5]decane-8-carboxylic acid(7-methoxy-thiazolo[5,4-d]pyrimidin-2-yl)-amide]	9
COC(=O)c1cccc(CN2CCN(C(=O)Nc3nc4c(OC)ncnc4s3)CC2)c1 [Example 10, 3-[4-(7-Methoxy-thiazolo[5,4-d]pyrimidin-2-ylcarbamoyl)-piperazin-1-ylmethyl]-benzoic acid methyl ester]	30
COc1ncnc2sc(NC(=O)N3CCC(N4CCCC4c4ccccc4)CC3)nc12 (centres unmarked) [Example 62, 4-(2-Phenyl-pyrrolidin-1-yl)-piperidine-1-carboxylic acid (7-methoxy-thiazolo[5,4-d]pyrimidin-2-yl)-amide]	218
COc1ncnc2sc(NC(=O)N3CCc4cc(C(F)(F)F)ccc4C3)nc12 [Example 95, 6-Trifluoromethyl-3,4-dihydro-1H-isoquinoline-2-carboxylic acid (7-methoxy-thiazolo[5,4-d]pyrimidin-2-yl)-amide]	115
COc1ncnc2sc(NC(=O)N3CC=C(c4cccc(C(F)(F)F)c4)CC3)nc12 [Example 67, 4-(3-Trifluoromethyl-phenyl)-3,6-dihydro-2H-pyridine-1-carboxylic acid (7-methoxy-thiazolo[5,4-d]pyrimidin-2-yl)-amide]	51
COC(=O)c1ccccc1S(=O)(=O)C1CCN(C(=O)Nc2nc3c(OC)ncnc3s2)CC1 [Example 76, 2-[1-(7-Methoxy-thiazolo[5,4-d]pyrimidin-2-ylcarbamoyl)-piperidine-4-sulfonyl]-benzoic acid methyl ester]	73
COc1ncnc2sc(NC(=O)N3CCN(Cc4cccc(C(F)(F)F)c4)CC3)nc12 [Example 1, 4-(3-trifluoromethyl-benzyl)-piperazine-1-carboxylic acid (7-methoxy-thiazolo[5,4-d]pyrimidin-2-yl)-amide]	5
COc1ncnc2sc(NC(=O)N3CCN(Cc4cccc(OCCO)c4)CC3)nc12 [Example 16, 4-[3-(2-Hydroxy-ethoxy)-benzyl]-piperazine-1-carboxylic acid (7-methoxy-thiazolo[5,4-d]pyrimidin-2-yl)-amide]	197
COc1ncnc2sc(NC(=O)N3CCN(Cc4cccc(C(=O)O)c4O)CC3)nc12 [Example 27, 2-Hydroxy-3-[4-(7-methoxy-thiazolo[5,4-d]pyrimidin-2-ylcarbamoyl)-piperazin-1-ylmethyl]-benzoic acid]	1560
COc1ncnc2sc(NC(=O)N3CCC(NCc4ccc(F)c(C(F)(F)F)c4)C3)nc12 (stereo in doubt) [Example 87, (R)-3-(4-Fluoro-3-trifluoromethyl-benzylamino)-pyrrolidine-1-carboxylic acid (7-methoxy-thiazolo[5,4-d]pyrimidin-2-yl)-amide]	2
COc1ncnc2sc(NC(=O)N3CCC(n4c(=O)[nH]c5ccccc54)CC3)nc12 [Example 57, 4-(2-Oxo-2,3-dihydro-benzoimidazol-1-yl)-piperidine-1-carboxylic acid (7-methoxy-thiazolo[5,4-d]pyrimidin-2-yl)-amide]	52
COc1ncnc2sc(NC(=O)N3CCC4(CC3)CN(S(C)(=O)=O)c3ccc(Cl)cc34)nc12 [Example 48, 5-Chloro-1,2-dihydro-N-(7-methoxythiazole[5,4-d]pyrimidin-2-yl)-1-(methylsulfonyl)spiro[3H-indole-3,4′-piperidine]-1′-carboxamide]	9
CCOC(=O)C1(Cc2ccc(OC(F)(F)F)cc2)CCCN(C(=O)Nc2nc3c(OC)ncnc3s2)C1 (centres unmarked) [Example 54, 1-(7-Methoxy-thiazolo[5,4-d]pyrimidin-2-ylcarbamoyl)-3-(4-trifluoromethoxy-benzyl)-piperidine-3-carboxylic acid ethyl ester]	1460
